This note sets out measurements from PubChem BioAssay (NCI).

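Tested at 5 concentrations; 48 h exposure; 96-well plates; endpoints linearly interpolated, else capped at highest concentration. GI50: concentration for 50% inhibition of growth. Definition used: TGI = concentration required for complete inhibition of growth.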

Test in all cases: DTP human tumour cell line panel, 48 h
In assay [1] the test system is A498 renal.
Assay [2] relates to T-47D breast.
The subject of assay [3] is IGROV1 ovarian.
Assay [4] concerns MDA-MB-231 breast.
In assay [5] the test system is SNB-19 CNS.
The subject of assay [6] is OVCAR-5 ovarian.
Assay [7] has as its system MDA-MB-435.

Consider `O=c1nc2oc3ccc4ccccc4c3cc-2s1`, for which the GI50 in assay [1] is 0.184 µM; in assay [2], 3.51 µM; in assay [3], 10.2 µM; in assay [4] it was 12.4 µM; in assay [5] it was 6.73 µM; in assay [6] it was greater than 100 µM. The 50% growth inhibitory concentration (GI50) in assay [7] is 0.259 µM. Besides, the TGI in assay [1] is 7.86 µM; in assay [2], greater than 100 µM; in assay [3], greater than 100 µM; in assay [4], greater than 100 µM; in assay [5], greater than 100 µM; in assay [6], greater than 100 µM. The same molecule came in with a TGI in assay [7] of 0.783 µM.

Take `COc1cccc(-n2ncc3c(N/N=C/c4ccncc4)ncnc32)c1`: the GI50 in assay [1] is 0.326 µM; in assay [2] it was greater than 25 µM; in assay [3], 7.95 µM; in assay [4], 3.51 µM; in assay [5], greater than 25 µM; in assay [6], greater than 25 µM. Also, the GI50 in assay [7] is 1.46 µM. Moreover, the TGI in assay [2], in assay [3], in assay [4], in assay [5], in assay [6] and in assay [7] was greater than 25 µM each time.

`O=C(NN1C(=O)CSC12CCCC2)c1[nH]c2ccc(Br)cc2c1-c1ccccc1`: the GI50 was greater than 100 µM in assay [1]; 39.1 µM in assay [2]; 21.8 µM in assay [3]; 32.5 µM in assay [4]; 54.1 µM in assay [5]; greater than 100 µM in assay [6]. Besides, in assay [7], the GI50 was 23.4 µM. Further, the concentration for total growth inhibition (TGI) in assay [1], in assay [2], in assay [3], in assay [4], in assay [5] and in assay [6] was greater than 100 µM throughout. Moreover, the total growth inhibition concentration (TGI) in assay [7] was 63.7 µM.

For `CN(C)c1ccc2c(c1)OC(N)=C(C#N)C2c1ccc2c(c1)CCO2` (centres undefined), the concentration for 50% growth inhibition (GI50) in assay [1] is less than 0.0272 µM; in assay [3] it was 0.326 µM; in assay [4], 0.419 µM; in assay [5], 1.17 µM; in assay [6], 1.13 µM; in assay [7] it was less than 0.0156 µM. The TGI in assay [1] is 5.59 µM; in assay [2], 56.4 µM; in assay [3] it was greater than 100 µM; in assay [4], 28.6 µM; in assay [5], greater than 100 µM; in assay [6], greater than 100 µM. Besides, the concentration for total growth inhibition (TGI) in assay [7] came out at 0.095 µM.

Consider `CN1CC[C@@H](c2c(O)cc(O)c3c(=O)cc(-c4ccccc4Cl)oc23)[C@@H]1CO`, for which the concentration for 50% growth inhibition (GI50) in assay [1] was 0.215 µM; in assay [2], 0.245 µM; in assay [3], 0.282 µM; in assay [4], 0.292 µM; in assay [5], 0.344 µM; in assay [6], 0.287 µM. Moreover, the GI50 in assay [7] is 0.271 µM. The TGI in assay [1] is 0.553 µM; in assay [2], 1.1 µM; in assay [3], greater than 10 µM; in assay [4] it was greater than 10 µM; in assay [5], greater than 10 µM; in assay [6], greater than 10 µM. In assay [7], this molecule had a total growth inhibition concentration (TGI) of 1.1 µM.

Take `COc1cc([C@H]2OC[C@H]3[C@@H]2CO[C@@H]3c2cc(OC)c3c(c2)OCO3)cc(OC)c1OC`: the total growth inhibition concentration (TGI) in assay [1], in assay [2], in assay [3], in assay [4], in assay [5] and in assay [6] was greater than 100 µM each time. The molecule also returned a total growth inhibition concentration (TGI) in assay [7] greater than 100 µM.

For the molecule `COc1cc(C(=O)NC2CCN(C)CC2)c(F)cc1Nc1ncc2c(n1)N(C1CCCC1)CC(F)(F)C(=O)N2C`, the GI50 in assay [1] is less than 0.0196 µM; in assay [2], less than 0.0315 µM; in assay [3], less than 0.0217 µM; in assay [5], less than 0.0281 µM; in assay [6], less than 0.0191 µM. In addition, the TGI in assay [1] amounted to 0.14 µM; in assay [2], 13 µM; in assay [3], 14.5 µM; in assay [5], 17.1 µM; in assay [6], 14.3 µM.

As for `CC#CC(=O)SCCNC(=O)CC`, the total growth inhibition concentration (TGI) in assay [1], in assay [2], in assay [3], in assay [4], in assay [5] and in assay [6] was greater than 10 µM throughout. In assay [7], the TGI is greater than 10 µM.

On to `CCOc1ccccc1N=Nc1c(C)[nH]n(-c2nc(-c3ccccc3)cs2)c1=O`, for which the GI50 was 23.5 µM in assay [1]; 30.1 µM in assay [2]; 25.8 µM in assay [3]; 44 µM in assay [4]; 43.1 µM in assay [5]; greater than 100 µM in assay [6]. Besides, the GI50 in assay [7] is greater than 100 µM. The TGI in assay [1] is greater than 100 µM; in assay [2], greater than 100 µM; in assay [3], greater than 85.3 µM; in assay [4], greater than 100 µM; in assay [5], greater than 100 µM; in assay [6] it was greater than 100 µM. In assay [7], the concentration for total growth inhibition (TGI) was greater than 100 µM.

On to `O=[N+]([O-])c1cccc([As]=[As]c2cccc([N+](=O)[O-])c2)c1` (centres undefined), for which the GI50 in assay [1] is 0.0835 µM; in assay [2] it was 0.0358 µM; in assay [3], 0.0587 µM; in assay [4], 0.0776 µM; in assay [5], 0.145 µM; in assay [6], 0.0891 µM. In assay [7], the GI50 is 0.122 µM. The TGI in assay [1] worked out at 0.231 µM; in assay [2], 0.164 µM; in assay [3] it was 0.211 µM; in assay [4], 0.212 µM; in assay [5], 0.279 µM; in assay [6], 0.216 µM. For the same molecule, the TGI in assay [7] amounted to 0.271 µM.

Turning to `CC(C)(O)CC(=O)NCCn1ccc2ncnc(Nc3ccc(Oc4cccc(C(F)(F)F)c4)c(Cl)c3)c21`, the GI50 in assay [1] is 2.9 µM; in assay [2] it was 0.641 µM; in assay [3], 1.26 µM; in assay [4] it was 4.53 µM; in assay [5], 3.91 µM; in assay [6], 2.55 µM. The GI50 in assay [7] is 3.98 µM. Further, the TGI in assay [1], in assay [2], in assay [3], in assay [4], in assay [5] and in assay [6] was greater than 10 µM each time. In assay [7], this molecule had a concentration for total growth inhibition (TGI) greater than 10 µM.
